Results as given in US20150087649A1, “TREATING DISORDERS ASSOCIATED WITH ABERRANT ADRENOCORTICAL CELL BEHAVIOR” (Atterocor, Inc., priority 2013, published 2015).
Where two headings read alike, the source gives them in different places. Blank lines part the entries; values can stand above or below the compound they belong to.

Legend:
[1] = target: T1, human ACAT1 (Homo sapiens, UniProt P35610, Q526R); experiment: Fluorescent cell-based assay measuring esterification of NBD-cholesterol in AC29 cells expressing huACAT1
T1 construct: expressed in transfected cells
T1 sequence (P35610 1-550 Q526R): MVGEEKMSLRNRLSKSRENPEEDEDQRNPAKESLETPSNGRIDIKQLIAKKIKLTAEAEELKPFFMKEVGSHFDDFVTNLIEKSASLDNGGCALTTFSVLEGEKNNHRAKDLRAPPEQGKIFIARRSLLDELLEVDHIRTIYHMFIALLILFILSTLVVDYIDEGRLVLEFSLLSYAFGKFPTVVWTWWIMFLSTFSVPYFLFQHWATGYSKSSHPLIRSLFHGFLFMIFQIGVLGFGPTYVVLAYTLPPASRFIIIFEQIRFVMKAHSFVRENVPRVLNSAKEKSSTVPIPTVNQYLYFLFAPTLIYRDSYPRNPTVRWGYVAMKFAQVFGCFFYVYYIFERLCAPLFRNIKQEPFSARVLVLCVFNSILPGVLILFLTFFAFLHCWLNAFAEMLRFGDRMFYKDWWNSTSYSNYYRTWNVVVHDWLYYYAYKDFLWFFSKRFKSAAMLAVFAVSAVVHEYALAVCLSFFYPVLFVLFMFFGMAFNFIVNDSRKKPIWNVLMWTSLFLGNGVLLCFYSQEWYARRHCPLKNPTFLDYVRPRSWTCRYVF
Source text: In the methods described herein, the agent inhibits the ability of huACAT1 to catalyze the esterification of free cholesterol into cholesteryl ester. […] AC29 cells lack endogenous ACAT1 activity and are transfected to express human ACAT1. The assay uses 22-[N-(7-nitrobenz-2-oxa-1,3-diazol-4-yl)amino]-23,24-bisnor-5-cholen-3-ol (NBD-cholesterol), a fluorescent sterol analog in which the NBD moiety replaces the terminal segment of the alkyl tail of cholesterol. […] In a polar environment, NBD-cholesterol is weakly fluorescent. In a nonpolar environment, NBD-cholesterol is strongly fluorescent. The fluorescent property of NBD-cholesterol is used to measure ACAT activity, as cholesterol is a polar lipid and cholesteryl ester is nonpolar. Untransfected AC29 cells or AC29 cells expressing huACAT1 treated with a known ACAT inhibitor can be used to determine background fluorescence due to free-NBD-cholesterol.
(§1) Cells were maintained in monolayer at 37° C. in 5% CO2 in Ham's F-12 medium supplemented with 1% Eagle's vitamins, penicillin (100 units/ml), streptomycin (100 μg/ml), and 10% heat-inactivated fetal bovine serum, and cells were typically grown to 70-90% confluence for all experiments.
(§2) Human ACAT1 activity was assessed using a fluorescent cell-based assay as described in Lada et al. (supra). The assay uses 22-[N-(7-nitrobenz-2-oxa-1,3-diazol-4-yl)amino]-23,24-bisnor-5-cholen-3-ol (NBD-cholesterol), a fluorescent sterol analog in which the NBD moiety replaces the terminal segment of the alkyl tail of cholesterol. […] In a polar environment, NBD-cholesterol is weakly fluorescent. In a nonpolar environment, NBD-cholesterol strongly is strongly fluorescent. The fluorescent property of NBD-cholesterol is used to measure ACAT activity, as cholesterol is a polar lipid and cholesteryl ester is nonpolar. 3×10^5 cells per well were plated on Falcon 96-well culture plates and allowed to recover overnight. Assays were performed with cells that are at least 80% confluent. Media was aspirated and wells were pre-incubated with 100 μL of dilutions of control and test compounds from 1000× stock solutions in DMSO (or other neutral diluent e.g., methanol, ethanol, or water) for 20 minutes. Media was removed and replaced with 100 μL of medium containing the same dilution of compound or vehicle as in the pre-incubation and 1 μg/ml NBD-cholesterol and incubated for 6 hr at 37° C. (Lada et al., supra). […] Parental AC29 cells incubated with NBD-cholesterol or ACAT1-expressing cells incubated with NBD-cholesterol and the […] were used to determine background fluorescence attributable to free NBD-cholesterol. After incubation, medium is removed, and the cells were washed two times with cold balanced salt solution (BSS). […] Cholesteryl ester (CE) fluorescence was calculated by subtracting the background from the total fluorescence, and these values were normalized by cellular protein.

[2] = target: T2, human ACAT2 (Homo sapiens, UniProt O75908); experiment: Fluorescent NBD-cholesterol esterification assay in AC29 stable transfectants, Table 2; assay type: cell-based
T2 sequence (O75908 1-522): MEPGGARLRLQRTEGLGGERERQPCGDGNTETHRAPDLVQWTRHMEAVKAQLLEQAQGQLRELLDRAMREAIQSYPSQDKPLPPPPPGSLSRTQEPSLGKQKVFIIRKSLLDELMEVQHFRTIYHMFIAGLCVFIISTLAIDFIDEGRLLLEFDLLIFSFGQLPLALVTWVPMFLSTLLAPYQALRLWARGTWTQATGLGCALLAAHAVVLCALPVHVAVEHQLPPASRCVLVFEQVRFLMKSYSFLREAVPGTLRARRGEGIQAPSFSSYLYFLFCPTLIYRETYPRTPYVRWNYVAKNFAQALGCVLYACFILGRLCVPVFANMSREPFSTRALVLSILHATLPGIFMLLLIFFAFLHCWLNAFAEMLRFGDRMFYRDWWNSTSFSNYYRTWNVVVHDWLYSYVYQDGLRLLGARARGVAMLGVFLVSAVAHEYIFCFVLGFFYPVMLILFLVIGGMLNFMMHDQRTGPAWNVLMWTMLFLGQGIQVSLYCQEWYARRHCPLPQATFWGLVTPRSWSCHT
Protocol: [The procedure below names another target; the source lists this target under the same test.] as §1, §2

[3] = test system: H295R cells; experiment: Caspase-3/7 activity (Apotox-Glo) in H295R cells with exogenous cholesterol; assay type: cell-based, human; settings: compound at its ACAT1 IC50 concentration, 45 ug/mL exogenous cholesterol, 5 hours
Protocol: Commercially-available assay kits may also be employed to measure Caspase 3/7 activity, including for example the Apotox-Glo Assay Kit (Promega). […] H295R cells are plated at 500,000 cells/well in a 12 well plate. After overnight incubation at 37° C., media is removed and replaced with media containing vehicle (DMSO) or one of the ACAT1 inhibitors at its ACAT1 IC50 concentration in the presence of 45 ug/mL exogenous cholesterol. After 5 hours of treatment, cells are harvested, washed and assayed for Caspase-3/7 activity using the Apotox-Glo Assay Kit (Promega).

[4] = test system: H295R; experiment: Free and esterified cholesterol in H295R cells with exogenous cholesterol; assay type: cell-based, human; settings: compound at its ACAT1 IC50 concentration, 45 μg/ml cholesterol
Protocol: In this study, H295R were plated at 200,000 cells/well in a 24 well plate. After overnight incubation at 37° C., media was removed and replaced with treatment media (test compound at its ACAT1 IC50 concentrations containing 45 μg/ml cholesterol) or vehicle (DMSO). After treatment of cells for various lengths of time (minutes to hours), media was removed and cells are washed twice with cold PBS. 200 ul of hexane/isopropanol (3:2) was then added to each well, the plate was rocked at room temperature for 1 hour, and the supernatant was transferred to glass vials and allowed to air dry. Residual lipids were resuspended and total cholesterol and free cholesterol were measured using the Cholesterol Fluorometric Assay Kit (Cayman Chemical). Cholesterol ester was determined by subtracting free cholesterol from total cholesterol.

[5] = test system: H295R cells; experiment: XBP-1 splicing (unfolded protein response) in H295R cells with exogenous cholesterol; assay type: cell-based, human; settings: compound at its ACAT1 IC50 concentration, 45 ug/mL exogenous cholesterol, 5 hours
Protocol: Treatment of H295R cells by an agent can result in chronic disruption of cholesterol homeostasis that may lead to activation of the UPR and/or triggering of the programmed cell death response and the induction apoptotic markers.
H295R adrenocortical cells are plated at 500,000 cells/well in a 12-well culture plate as described in Example 8. […]. After 5 hours of treatment, RNA is extracted using the Qiagen RNEasy® Plus kit and 1 μg RNA is reverse transcribed using Applied Biosystems® High-Capacity cDNA Reverse Transcription Kit. XBP-1 splicing product is amplified by PCR using primer pairs that allow detection of the activated isoform (5′-[…]-3′ (SEQ ID NO:15) and 5′-[…]-3′ (SEQ ID NO:16)) under the following conditions: 1) 95° C. for 30 sec, 2) 95° C. for 15 sec; 3) 50° C. for 15 sec, 4) 68° C. for 30 sec. […] Amplification steps 2 through 4 are repeated for 30 cycles. PCR product is resolved on a 5% agarose gel. DTT treated cells serve as a positive control for XBP-1 splicing. An increase in the XBP-1 splice variant expression of greater than 20% is considered significant.

[6] = test system: adrenocortical cells; settings: as reported in the literature; cited from earlier work
[7] = test system: adrenocortical carcinoma (ACC); settings: cited from earlier work
[8] = Table 2, first IC50 column, AC29 cells expressing huACAT1, 1 μg/ml NBD-cholesterol, 6 hr, read-out: IC50 huACAT1
[9] = Table 3, determined as described in Example 1, read-out: ACAT1 IC50
[10] = Table 2, second IC50 column (head repeats huACAT1), AC29 transfectants, NBD-cholesterol, read-out: IC50 huACAT1

- IC50 [1, 8]: 0.006 µM
- IC50 [1, 9]: 0.01 µM
- IC50 [2, 10]: 0.08 µM
Structure (SMILES): Cc1ccc2oc(CN(Cc3ccccc3)C(=O)Nc3c(F)cc(F)cc3F)c(-c3ccc(Cl)cc3)c2c1 [Compound 5]
- Caspase-3/7 activity compared to vehicle [3]: significant increases
- free cholesterol compared to vehicle [4]: increase in free cholesterol
- splicing of XBP-1 compared to vehicle [5]: significant splicing of XBP-1
- Adrenal activity [6]: Adrenal acting

Structure (SMILES): CCCCCCCCCCCCn1nnc(C(C(=O)Nc2c(C(C)C)cccc2C(C)C)c2ccccc2)n1 (centres unmarked) [Compound 3, 2H-Tetrazole-5-acetamide, N-[2,6-bis(1-methylethyl)phenyl]-2-dodecyl-a-phenyl-]
- IC50 [1, 8]: 2 µM
- IC50 [1, 9]: 0.011 µM
- IC50 [2, 10]: 0.51 µM
- Caspase-3/7 activity compared to vehicle [3]: significant increases
- free cholesterol compared to vehicle [4]: increase in free cholesterol
- splicing of XBP-1 compared to vehicle [5]: significant splicing of XBP-1
- Adrenal activity [6]: Adrenal acting

- IC50 [1, 8]: 0.54 µM
Structure (SMILES): CCCCCCCCC(C)(C)C(=O)Nc1c(OC)cc(OC)cc1OC [Compound 7]

- IC50 [1, 8]: 0.0018 µM
- IC50 [2, 10]: 0.018 µM
Structure (SMILES): CCCCC[C@H]1C=C[C@@H](CCCCC)SC1[C@@H](C)Nc1c(SC)cc(C)nc1SC (some centres unmarked) [Compound 6]

Structure (SMILES): Clc1ccc(C(c2ccccc2Cl)C(Cl)Cl)cc1 (centres unmarked) [mitotane]
- delay of disease progression, average ([7]; ACC patients that derive a therapeutic benefit): five
- share of patients with increased progression-free survival ([7]; ACC patients): one-quarter to one-third

Structure (SMILES): CC(C)c1cccc(C(C)C)c1OC(=O)NS(=O)(=O)Oc1c(C(C)C)cccc1C(C)C [Compound 1]
- IC50 [1]: 2.4 µM
- IC50 [2]: 0.44 µM

- IC50 [1, 8]: 0.02 µM
- IC50 [2, 10]: 0.021 µM
Structure (SMILES): CCCCCCCCCCCCCOC(=O)C(C(=O)Nc1c(C(C)C)cccc1C(C)C)c1ccccc1 (centres unmarked) [Compound 2]
